# From US8962608B2, “Cycloalkylnitrile pyrazole carboxamides as janus kinase inhibitors” (Merck Sharp & Dohme Corp., priority 2011, dated 2015)
# Target: JAK2 (recombinant purified GST-tagged catalytic domain) (Homo sapiens (Human), UniProt O60674)
# Experiment: biochemical
# 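Also: biochemical JAK kinase assay with HTRF detection.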
# Chain of JAK2 (recombinant purified GST-tagged catalytic domain) (O60674 849-1124): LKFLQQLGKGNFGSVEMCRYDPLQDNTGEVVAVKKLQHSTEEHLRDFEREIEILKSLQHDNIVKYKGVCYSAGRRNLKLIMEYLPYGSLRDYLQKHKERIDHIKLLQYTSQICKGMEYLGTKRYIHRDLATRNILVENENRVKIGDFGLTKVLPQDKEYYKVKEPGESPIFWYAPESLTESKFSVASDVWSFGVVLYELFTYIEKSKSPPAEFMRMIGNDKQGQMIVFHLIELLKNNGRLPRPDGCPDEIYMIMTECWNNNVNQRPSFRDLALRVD
row,SMILES,IC50
1,"N#C[C@H]1C[C@H](OCC2CC2)CC[C@@H]1n1cc(C(N)=O)c(Nc2ccc([C@@H](O)C(F)(F)F)cc2)n1 (single isomer, unassigned) [Example 26-5, 1-[(1S,2S,4R or 1R,2R,4S)-2-cyano-4-(cyclopropylmethoxy)cyclohexyl]-3-({4-[(1R or 1S)-2,2,2-trifluoro-1-hydroxyethyl]phenyl}amino)-1H-pyrazole-4-carboxamide]",14 nM
2,"N#C[C@H]1C[C@@H](O)CC[C@@H]1n1cc(C(N)=O)c(Nc2ccc(Cl)nc2)n1 (single isomer, unassigned) [Example 33-14, 3-[(6-chloropyridin-3-yl)amino]-1-[(1S,2S,4S or 1R,2R,4R)-2-cyano-4-hydroxycyclohexyl]-1H-pyrazole-4-carboxamide]",14 nM
3,"N#C[C@H]1C[C@H](NCC2CC2)CC[C@@H]1n1cc(C(N)=O)c(Nc2ccc(S(=O)(=O)C(F)(F)F)cc2)n1 (single isomer, unassigned) [Example 28-173, 1-{(1S,2S,4R or 1R,2R,4S)-2-cyano-4-[(cyclopropyl-methyl)amino]cyclohexyl}-3-({4-[(trifluoro-methyl)sulfonyl]phenyl}amino)-1H-pyrazole-4-carboxamide]",24 nM
4,"N#C[C@H]1C[C@@H](N2CC3(CCC3)C2)CC[C@@H]1n1cc(C(N)=O)c(Nc2ccccc2)n1 (single isomer, unassigned) [Example 28-136, 1-[(1S,2S,4S or 1R,2R,4R)-4-(2-azaspiro[3.3]hept-2-yl)-2-cyanocyclohexyl]-3-(phenylamino)-1H-pyrazole-4-carboxamide]",61 nM
5,"CC1(C)CN([C@H]2CC[C@H](n3cc(C(N)=O)c(Nc4ccc([C@H](O)C(F)(F)F)cc4)n3)[C@@H](C#N)C2)C1 (single isomer, unassigned) [Example 28-93, 1-[(1S,2S,4S or 1R,2R,4R)-2-cyano-4-(3,3-dimethylazetidin-1-yl)cyclohexyl]-3-({4-[(1S or 1R)-2,2,2-trifluoro-1-hydroxyethyl]phenyl}amino)-1H-pyrazole-4-carboxamide]",5 nM
6,"N#C[C@@H]1CCCCC1n1cc(C(N)=O)c(Nc2ccccc2)n1 (mixture of isomers) [Example 1-3, 1-[(1S,2R and 1R,2S)-2-cyanocyclohexyl]-3-(phenylamino)-1H-pyrazole-4-carboxamide]",138 nM
7,"CC(C)(C)OC(=O)NC1CC[C@H](C#N)C(n2cc(C(N)=O)c(Nc3ccc(F)cc3)n2)C1 (mixture of isomers) [Example 11-3, tert-butyl [(1R,3S,4S and 1S,3R,4R) or (1S,3S,4S and 1R,3R,4R)-3-{4-carbamoyl-3-[(4-fluorophenyl)amino]-1H-pyrazol-1-yl}-4-cyanocyclohexyl]carbamate]",49 nM
8,"CC1(C)CN([C@H]2CC[C@H](n3cc(C(N)=O)c(Nc4ccc(C(F)(F)F)cc4)n3)[C@@H](C#N)C2)C1 (single isomer, unassigned) [Example 28-202, 1-[(1S,2S,4S or 1R,2R,4R)-2-cyano-4-(3,3-dimethylazetidin-1-yl)cyclohexyl]-3-{[4-(trifluoromethyl)phenyl]amino}-1H-pyrazole-4-carboxamide]",39 nM
9,"CC(C)(C)OC(=O)NC1CC[C@H](C#N)C(n2cc(C(N)=O)c(Nc3ccc(F)cc3)n2)C1 (mixture of isomers) [Example 11-5, tert-butyl [(1R,3S,4S and 1S,3R,4R) or (1S,3S,4S and 1R,3R,4R)-3-{4-carbamoyl-3-[(4-fluorophenyl)amino]-1H-pyrazol-1-yl}-4-cyanocyclohexyl]carbamate]",22 nM
10,"N#C[C@H]1C[C@H](NC2CC2)CC[C@@H]1n1cc(C(N)=O)c(Nc2ccc(C(F)(F)F)cc2)n1 (single isomer, unassigned) [Example 28-139, 1-[(1S,2S,4R or 1R,2R,4R)-2-cyano-4-(cyclopropylamino)cyclohexyl]-3-{[4-(trifluoromethyl)phenyl]amino}-1H-pyrazole-4-carboxamide]",113 nM
11,"N#C[C@H]1CCCC[C@@H]1n1cc(C(N)=O)c(Nc2ccc(F)c(Cl)c2)n1 (racemic) [Example 17-58, 3-[(3-chloro-4-fluorophenyl)amino]-1-[(1S,2S and 1R,2R)-2-cyanocyclohexyl]-1H-pyrazole-4-carboxamide]",42 nM
12,"N#C[C@H]1C[C@H](O)CC[C@@H]1n1cc(C(N)=O)c(Nc2ccc(Cl)nc2)n1 (single isomer, unassigned) [Example 25-12, 3-[(6-chloropyridin-3-yl)amino]-1-[(1S,2S,4R or 1R,2R,4S)-2-cyano-4-hydroxycyclohexyl]-1H-pyrazole-4-carboxamide]",20 nM
13,"N#C[C@H]1C[C@@H](NCC(F)F)CC[C@@H]1n1cc(C(N)=O)c(Nc2ccc(S(=O)(=O)C(F)(F)F)cc2)n1 (single isomer, unassigned) [Example 28-165, 1-{(1S,2S,4S or 1R,2R,4R)-2-cyano-4-[(2,2-difluoroethyl)amino]cyclohexyl}-3-({4-[(trifluoro-methyl)sulfonyl]phenyl}amino)-1H-pyrazole-4-carboxamide]",4 nM
14,"CC1(C)CN([C@@H]2CC[C@H](n3cc(C(N)=O)c(Nc4ccc(C(F)(F)F)cc4)n3)[C@@H](C#N)C2)C1 (single isomer, unassigned) [Example 28-203, 1-[(1S,2S,4R or 1R,2R,4S)-2-cyano-4-(3,3-dimethylazetidin-1-yl)cyclohexyl]-3-{[4-(trifluoromethyl)phenyl]amino}-1H-pyrazole-4-carboxamidc]",285 nM
15,"CN(C)[C@H]1CC[C@H](n2cc(C(N)=O)c(Nc3ccc(C(F)(F)F)nc3)n2)[C@@H](C#N)C1 (single isomer, unassigned) [Example 28-22, 1-[(1S,2S,4S or 1R,2R,4R)-2-cyano-4-(dimethylamino)cyclohexyl]-3-{[6-(trifluoromethyl)pyridin-3-yl]amino}-1H-pyrazole-4-carboxamide]",145 nM
16,"C[C@@H](N[C@@H]1CC[C@H](n2cc(C(N)=O)c(Nc3ccc(S(=O)(=O)C(F)(F)F)cc3)n2)[C@@H](C#N)C1)C1CC1 (single isomer, unassigned) [Example 28-183, 1-{(1S,2S,4R or 1R,2R,4S)-2-cyano-4-[(1-cyclopropylethyl)amino]cyclo-hexyl}-3-({4-[(trifluoromethyl)sulfonyl]phen-yl}amino)-1H-pyrazole-4-carboxamide]",61 nM
17,"N#C[C@@H]1C[C@@H](OCC2CC2)CC[C@H]1n1cc(C(N)=O)c(Nc2ccc(F)cc2)n1 (single isomer, unassigned) [Example 26-10, 1-[(1R,2R,4S or 1S,2S,4R)-2-cyano-4-(cyclopropylmethoxy)cyclohexyl]-3-[(4-fluorophenyl)amino]-1H-pyrazole-4-carboxamide]",102 nM
18,"N#C[C@H]1C[C@H](NCc2c(F)cccc2F)CC[C@@H]1n1cc(C(N)=O)c(Nc2ccc(C(F)(F)F)cc2)n1 (single isomer, unassigned) [Example 30-13, 1-{(1S,2S,4R or 1R,2R,4S)-2-cyano-4-[(2,6-difluoro-benzyl)amino]cyclohexyl}-3-{[4-(trifluoromethyl)phenyl]amino}-1H-pyrazole-4-carboxamide]",500 nM
19,"N#C[C@H]1C[C@@H](NC2CC2)CC[C@@H]1n1cc(C(N)=O)c(Nc2ccc(C(F)(F)F)cc2)n1 (single isomer, unassigned) [Example 28-137, 1-[(1S,2S,4S or 1R,2R,4R)-2-cyano-4-(cyclopropylamino)cyclohexyl]-3-{[4-(trifluoromethyl)phenyl]amino}-1H-pyrazole-4-carboxamide]",22 nM
